According to patent US20080234385A1, “Method For Inhibiting Tnf-Alpha” (CARITAS ST. ELIZABETH'S MEDICAL CENTER, priority 2005, published 2008):
Entries after “also recorded” stand apart in the source; their conditions may differ.

System: LPS-stimulated TNF-α production
Assay: LPS-stimulated TNF-α production by THP-1-derived monocytes (ELISA)
Type: cell-based, human
Conditions: differentiated THP-1 cells, endotoxin 10 ng/ml, 24 hours; for effect on LPS-stimulated TNF-α production/synthesis (in words): rising concentrations
Method: The human promonocytic THP-1 cell line (American Type Culture Collection, Manassas, Va.) was maintained in suspension culture at 0.25×10^6 cells/ml in RPMI-1640 medium supplemented with 2 mM L-glutamine, 10% fetal bovine serum and 0.05 mM 2-mercaptoethanol in a humidified atmosphere of 5% CO2 in air at 37° C. Differentiation to monocytes (0.25×10^6 cells/ml) was induced by incubating cells with trans-retinoic acid (1 μM), 1.25 dihydroxy cholecalciferol (0.1 μM) and interferon-γ (0.01 mg/l) (Sigma, St. Louis, Mo.). After 3 days, cells were detached using trypsin-EDTA, washed in PBS, and 1×10^6 cells were used for each experimental condition.
Differentiated THP-1 cells were co-incubated with 10 ng/ml of purified Escherichia coli endotoxin (serotype O55: B5, Sigma Chemical Co.) and rising concentrations (0-400 μM) of either melatonin, N-acetyldopamine (NAD) or N-methyldopamine (NMD) or 3-hydroxy-4-methoxy-dopamine (HMP) (Sigma) in RPMI-1640 cell culture medium at 37° C. in a humidified atmosphere supplemented with 5% CO2. After 24-hour incubation, cell supematants were harvested, and TNF-α was measured by a sandwich enzyme linked immunosorbent assay (ELISA), according to the manufacturer's instructions (Quantikine®, R & D systems, Minneapolis, Minn., USA). The lower limit of detection for TNF-α was 1.6 pg/ml. The average intra-assay coefficient of variation for TNF-α was 5%.

Question: What does the source list for `CC(=O)NCCc1ccc(O)c(O)c1` [NAD, N-acetyldopamine]?
Answer: effect on LPS-stimulated TNF-α production/synthesis (in words): marked decrease in LPS-stimulated TNF-α production, which was dose dependent; also recorded: suppress LPS-stimulated TNF-α synthesis by monocytic cells in a dose-dependent manner; potency in blocking TNF-α production compared with NMD, HMP and melatonin (low-dose (1-20 μM, FIG. 1)): more potent in blocking TNF-α production

Question: How did the “effect on LPS-stimulated TNF-α production/synthesis (in words)” value turn out when `COc1ccc2[nH]cc(CCNC(C)=O)c2c1` [melatonin, reference compound] was run?
Answer: Its value is “marked decrease in LPS-stimulated TNF-α production, which was dose dependent”.

Question: How did the “effect on LPS-stimulated TNF-α production/synthesis (in words)” value turn out when `CC(=O)NCCc1c[nH]c2ccc(O)cc12` [NAS, N-acetyl-serotonin, reference compound] was run?
Answer: Its value is “marked decrease in LPS-stimulated TNF-α production, which was dose dependent”.

Question: For `CNCCc1ccc(O)c(O)c1` [NMD, N-methyldopamine], which “effect on LPS-stimulated TNF-α production/synthesis (in words)” value is on record?
Answer: Its value is “suppress LPS-stimulated TNF-α synthesis by monocytic cells in a dose-dependent manner”.
